Results as given in US12297207B2, “Maytansinoid derivatives, conjugates thereof, and methods of use” (priority 2015, dated 2025).
Like-named read-outs stand apart in the source and are kept apart here.

Key:
Ovcar3 (Muc16+) cells = assay: In vitro cytotoxicity assay (CCK8 viability), Ovcar3 cells; assay type: cell-based; settings: for IC50: read-out: Ovcar3 IC50
Experimental: (§1) In this Example, the ability of various antibody-drug conjugates or their associated payloads to kill antigen-expressing tumor cells in vitro was assessed.
(§2) Ovcar3 (Muc16+) or C4-2 (PSMA+) cells were seeded in 96 well plates at 3000 (C42) cells per well in complete growth media and grown overnight. For cell viability curves, serially diluted conjugates or payloads were added to the cells at final concentrations ranging from 300 nM to 5 pM and incubated for 3 days. To measure viability, cells were incubated with CCK8 (Dojindo) for the final 1-3 hours and the absorbance at 450 nm (OD450) was determined on a Victor (Perkin Elmer). Background OD450 levels determined from digitonin ([…]) treated cells were subtracted from all wells and viability is expressed as a percentage of the untreated controls. IC50 values were determined from a four-parameter logistic equation over a 10-point response curve (GraphPad Prism). All conjugate curves and IC50 values are corrected for payload equivalents.

C4-2 (PSMA+) cells = assay: In vitro cytotoxicity assay (CCK8 viability), C4-2 cells; assay type: cell-based; settings: for IC50: read-out: C4-2 IC50
Experimental: as §1, §2

[1] = system: T47D ductal carcinoma line (PRLR+); assay: In vitro cytotoxicity assay (CellTiter-Glo), T47D cells; assay type: cell-based, human; settings: for IC50: 5 days
Experimental: The present example provides cytotoxicity assays for conjugates provided herein. To evaluate the ability of anti-PRLR antibodies conjugated with 63, 60, 77, and 78 to kill a PRLR expressing cell line, an in vitro cytotoxicity assay using a T47D ductal carcinoma line (ATCC, #HTB-133), which was previously determined to express >27,000 copies of human PRLR at its cell surface, was utilized.
For the assay, T47D cells were seeded onto white 96 well plates at 2,000 cells/well in media containing DMEM supplemented with 10% FBS, NEAA, and pencillin/streptomycinin (complete media). They were grown overnight at 37° C. in 5% CO2. To determine cell viability curves, the following day antibody drug conjugates, unconjugated antibodies, or free payloads were added to the cells at final serial dilutions ranging from 100 nM to 0.01 nM in complete medium and then incubated for an additional 5 days. Luciferase activity was detected after the addition of CellTiter-Glo™ reagent (Promega, G7571) to each well, which contains reagents to lyse the remaining viable cells to release their ATP, ATPase inhibitors to prevent degradation of the ATP, as well as luciferin and luciferase to catalyse the luminescent reaction. Viable cells prior to addition of CellTiter-Glo will be the only source of ATP since the dead cells in culture will not synthesis ATP and any of their released ATP will be destroyed via endogenous ATPases. Relative light units (RLUs) were measured on a Victor luminometer (PerkinElmer) and the results were determined using a four-parameter logistic equation over a 10-point response curve (GraphPad Prism). All measured values and calculated IC50 values were corrected for payload equivalents. All IC50 values are expressed in nM concentration and percent kill is reported for the highest concentration tested.

[2] = Table 5, payloads only, read-out: T47D IC50
[3] = Table 5, payloads only, highest concentration tested

Structure (SMILES)	C4-2 % kill (C4-2 (PSMA+) cells; Table 5, payloads only)	IC50 (C4-2 (PSMA+) cells; Table 5, payloads only)	IC50 [1, 2]	T47D % kill [1, 3]	further results
COc1cc2cc(c1Cl)N(C)C(=O)C[C@H](OC(=O)[C@H](C)N(C)C(=O)c1ccc(N)cc1C(F)(F)F)[C@]1(C)O[C@H]1[C@H](C)[C@@H]1C[C@@](O)(NC(=O)O1)[C@H](OC)/C=C/C=C(\C)C2 [Compound 31, Maytansin-N-methyl-L-alanine-(2-trifluoromethyl-4-amino)benzamide]	82%	0.1 nM	–	–	Ovcar3 % kill (Ovcar3 (Muc16+) cells; Table 2, payloads only): 93%; IC50 (Ovcar3 (Muc16+) cells; Table 2, payloads only): 0.04 nM; Ovcar3 % kill (Ovcar3 (Muc16+) cells; Table 5, payloads only): 93%; IC50 (Ovcar3 (Muc16+) cells; Table 5, payloads only): 0.04 nM; C4-2 % kill (C4-2 (PSMA+) cells; Table 2, payloads only): 82%; IC50 (C4-2 (PSMA+) cells; Table 2, payloads only): 0.1 nM
COc1cc2cc(c1Cl)N(C)C(=O)C[C@H](OC(=O)[C@H](C)N(C)C(=O)c1cc(F)c(N)cc1F)[C@]1(C)O[C@H]1[C@H](C)[C@@H]1C[C@@](O)(NC(=O)O1)[C@H](OC)/C=C/C=C(\C)C2 [Compound 39, Maytansin-N-methyl-L-alanine-N-(2,5-difluoro-4-amino)benzamide]	–	–	0.02 nM	70%	–
COc1cc2cc(c1Cl)N(C)C(=O)C[C@H](OC(=O)[C@H](C)N(C)C(=O)c1ccc(N)c(F)c1)[C@]1(C)O[C@H]1[C@H](C)[C@@H]1C[C@@](O)(NC(=O)O1)[C@H](OC)/C=C/C=C(\C)C2 [Compound 41, Maytansin-N-methyl-L-alanine-(3-fluoro-4-amino)benzamide]	–	–	0.03 nM	72%	–
COc1cc2cc(c1Cl)N(C)C(=O)C[C@H](OC(=O)[C@H](C)N(C)C(=O)c1ccc(N)c(Cl)c1)[C@]1(C)O[C@H]1[C@H](C)[C@@H]1C[C@@](O)(NC(=O)O1)[C@H](OC)/C=C/C=C(\C)C2 [Compound 43, Maytansin-N-methyl-L-alanine-(3-chloro-4-amino)benzamide]	–	–	0.01 nM	71%	–
COc1cc2cc(c1Cl)N(C)C(=O)CC(OC(=O)C(C)N(C)C(=O)c1ccc(N)c3cccnc13)C1(C)OC1C(C)C1CC(O)(NC(=O)O1)C(OC)C=CC=C(C)C2 [Compound 45, Maytansin-N-methyl-L-alanine-(5-amino-8-carboxyquinoline)carboxamide]	–	–	3.73 nM	72%	–
COc1cc2cc(c1Cl)N(C)C(=O)C[C@H](OC(=O)[C@H](C)N(C)C(=O)c1ccc(N)c(Br)c1)[C@]1(C)O[C@H]1[C@H](C)[C@@H]1C[C@@](O)(NC(=O)O1)[C@H](OC)/C=C/C=C(\C)C2 [Compound 47, Maytansin-N-methyl-L-alanine-(3-bromo-4-amino)benzamide]	–	–	0.01 nM	72%	–
COc1cc(C(=O)N(C)[C@@H](C)C(=O)O[C@H]2CC(=O)N(C)c3cc(cc(OC)c3Cl)C/C(C)=C/C=C/[C@@H](OC)[C@@]3(O)C[C@H](OC(=O)N3)[C@@H](C)[C@@H]3O[C@@]23C)ccc1N [Compound 49, Maytansin-N-methyl-L-alanine-(3-methoxy-4-amino)benzamide]	–	–	0.06 nM	70%	IC50 ([1]; corrected for payload equivalents, read-out: IC50 (cytotoxicity of T47D cells)): 0.03 nM; maximum percent killing ([1]; T47D cells, highest concentration tested): 69%
COc1cc2cc(c1Cl)N(C)C(=O)C[C@H](OC(=O)[C@H](C)N(C)C(=O)c1ccc(N)cc1C)[C@]1(C)O[C@H]1[C@H](C)[C@@H]1C[C@@](O)(NC(=O)O1)[C@H](OC)/C=C/C=C(\C)C2 [Compound 51, Maytansin-N-methyl-L-alanine-(2-methyl-4-amino)benzamide]	–	–	0.49 nM	72%	–
COc1cc2cc(c1Cl)N(C)C(=O)CC(OC(=O)C(C)N(C)C(=O)c1ccc(N)c(C)c1)C1(C)OC1C(C)C1CC(O)(NC(=O)O1)C(OC)C=CC=C(C)C2 [Compound 53, Maytansin-N-methyl-L-alanine-(3-methyl-4-amino)benzamide]	–	–	0.2 nM	72%	–
COc1cc2cc(c1Cl)N(C)C(=O)C[C@H](OC(=O)[C@H](C)N(C)C(=O)c1ccc(N)c3ncccc13)[C@]1(C)O[C@H]1[C@H](C)[C@@H]1C[C@@](O)(NC(=O)O1)[C@H](OC)/C=C/C=C(\C)C2 [Compound 55, Maytansin-N-methyl-L-alanine-(8-amino-5-carboxyquinoline)carboxamide]	–	–	0.18 nM	75%	–
COc1ccc(N)cc1C(=O)N(C)[C@@H](C)C(=O)O[C@H]1CC(=O)N(C)c2cc(cc(OC)c2Cl)C/C(C)=C/C=C/[C@@H](OC)[C@@]2(O)C[C@H](OC(=O)N2)[C@@H](C)[C@@H]2O[C@@]12C [Compound 65, Maytansin-N-methyl-L-alanine-N-(2-methoxy-5-amino)benzamide]	–	–	1.13 nM	72%	–
COc1ccc(C(=O)N(C)[C@@H](C)C(=O)O[C@H]2CC(=O)N(C)c3cc(cc(OC)c3Cl)C/C(C)=C/C=C/[C@@H](OC)[C@@]3(O)C[C@H](OC(=O)N3)[C@@H](C)[C@@H]3O[C@@]23C)cc1N [Compound 67, Maytansin-N-methyl-L-alanine-N-(3-amino-4-methoxy)benzamide]	–	–	0.19 nM	71%	–
COc1cc2cc(c1Cl)N(C)C(=O)C[C@H](OC(=O)[C@H](C)N(C)C(=O)c1cc(N)cc(F)c1)[C@]1(C)O[C@H]1[C@H](C)[C@@H]1C[C@@](O)(NC(=O)O1)[C@H](OC)/C=C/C=C(\C)C2 [Compound 69, Maytansin-N-methyl-L-alanine-N-(3-amino-5-fluoro)benzamide]	–	–	0.39 nM	73%	–
COc1cc2cc(c1Cl)N(C)C(=O)CC(OC(=O)C(C)N(C)C(=O)c1cc(N)ccc1F)C1(C)OC1C(C)C1CC(O)(NC(=O)O1)C(OC)C=CC=C(C)C2 [Compound 71, Maytansin-N-methyl-L-alanine-N-(2-fluoro-5-amino)benzamide]	–	–	0.73 nM	68%	–
COc1cc2cc(c1Cl)N(C)C(=O)C[C@H](OC(=O)[C@H](C)N(C)C(=O)c1cccc(N)c1)[C@]1(C)O[C@H]1[C@H](C)[C@@H]1C[C@@](O)(NC(=O)O1)[C@H](OC)/C=C/C=C(\C)C2 [Compound 73, Maytansin-N-methyl-L-alanine-N-(3-amino)benzamide]	–	–	0.57 nM	73%	–
COc1cc2cc(c1Cl)N(C)C(=O)C[C@H](OC(=O)[C@H](C)N(C)C(=O)c1ccc(N)c(S(C)(=O)=O)c1)[C@]1(C)O[C@H]1[C@H](C)[C@@H]1C[C@@](O)(NC(=O)O1)[C@H](OC)/C=C/C=C(\C)C2 [Compound 80, Maytansin-N-methyl-L-alanine-N-(3-methylsulfonyl-4-amino)benzamide]	91%	1.3 nM	–	–	–
COc1cc2cc(c1Cl)N(C)C(=O)CC(OC(=O)C(C)N(C)C(=O)c1ccc(N)c(O)c1)C1(C)OC1C(C)C1CC(O)(NC(=O)O1)C(OC)C=CC=C(C)C2 [Compound 82, Maytansin-N-methyl-L-alanine-N-(3-hydroxy-4-amino)benzamide]	93%	19.9 nM	–	–	–
COc1cc2cc(c1Cl)N(C)C(=O)C[C@H](OC(=O)[C@H](C)N(C)C(=O)c1ccccc1N)[C@]1(C)O[C@H]1[C@H](C)[C@@H]1C[C@@](O)(NC(=O)O1)[C@H](OC)/C=C/C=C(\C)C2 [Compound 84, Maytansin-N-methyl-L-alanine-N-(2-amino)benzamide]	88%	0.07 nM	–	–	–
COc1ccc(C(=O)N(C)[C@@H](C)C(=O)O[C@H]2CC(=O)N(C)c3cc(cc(OC)c3Cl)C/C(C)=C/C=C/[C@@H](OC)[C@@]3(O)C[C@H](OC(=O)N3)[C@@H](C)[C@@H]3O[C@@]23C)c(N)c1 [Compound 86, Maytansin-N-methyl-L-alanine-N-(4-methoxy-2-amino)benzamide]	90%	0.73 nM	–	–	–
COc1cc2cc(c1Cl)N(C)C(=O)C[C@H](OC(=O)[C@H](C)N(C)C(=O)c1ccc(N)c(N3CCOCC3)c1)[C@]1(C)O[C@H]1[C@H](C)[C@@H]1C[C@@](O)(NC(=O)O1)[C@H](OC)/C=C/C=C(\C)C2 [Compound 88, Maytansin-N-methyl-L-alanine-N-(3-morpholino-4-amino)benzamide]	89%	0.05 nM	–	–	–
COc1cc2cc(c1Cl)N(C)C(=O)C[C@H](OC(=O)[C@H](C)N(C)C(=O)c1ccc(N)c(NC(C)=O)c1)[C@]1(C)O[C@H]1[C@H](C)[C@@H]1C[C@@](O)(NC(=O)O1)[C@H](OC)/C=C/C=C(\C)C2 [Compound 90, Maytansin-N-methyl-L-alanine-N-(3-acetamido-4-amino)benzamide]	86%	> 100 nM	–	–	–
